These results are taken from article PMC5218480 (PLoS ONE, 2017).

The structures appear in SMILES notation.

For the experiment, the system named is MV-4-11 cells. The experiment is described as follows: Gene expression microarray analysis (Affymetrix PrimeView) and GSEA. In kind it is cell-based, human. The arrangement: RFU PODN (11730768_x_at) / Fold change /veh PODN (11730768_x_at) / RFU LINC00158 (11744669_a_at) / Fold change /veh LINC00158 (11744669_a_at) / RFU DUSP10 (11751237_a_at) / Fold change /veh DUSP10 (11751237_a_at) / RFU ID3 (11757404_x_at) / Fold change /veh ID3 (11757404_x_at) / RFU PLEKHG5 (11737974_s_at) / Fold change /veh PLEKHG5 (11737974_s_at) / RFU LRRC4B (11730491_at) / Fold change /veh LRRC4B (11730491_at) / RFU GIMAP4 (11747438_a_at) / Fold change /veh GIMAP4 (11747438_a_at) / RFU KRT8 (11758183_x_at) / Fold change /veh KRT8 (11758183_x_at) / RFU CNN1 (11734310_a_at) / Fold change /veh CNN1 (11734310_a_at) / RFU VPS37D (11726825_at) / Fold change /veh VPS37D (11726825_at) / RFU C10orf10 (11716522_x_at) / Fold change /veh C10orf10 (11716522_x_at) / RFU KIR2DL2 /// KIR2DL4 /// KIR2DL5A /// KIR2DL5B /// KIR2DS1 /// KIR2DS2 /// KIR2DS3 /// KIR2DS4 /// KIR3DL3 /// KIR3DL3 /// KIR3DS1 (11738374_at) / Fold change /veh KIR2DL2 /// KIR2DL4 /// KIR2DL5A /// KIR2DL5B /// KIR2DS1 /// KIR2DS2 /// KIR2DS3 /// KIR2DS4 /// KIR3DL3 /// KIR3DL3 /// KIR3DS1 (11738374_at) / RFU C1QL1 (11718748_at) / Fold change /veh C1QL1 (11718748_at) / RFU TMPRSS4 (11747572_a_at) / Fold change /veh TMPRSS4 (11747572_a_at) / RFU HAMP (11756126_x_at) / Fold change /veh HAMP (11756126_x_at) / RFU RNFT2 (11725882_a_at) / Fold change /veh RNFT2 (11725882_a_at) / RFU NR4A2 (11747474_a_at) / Fold change /veh NR4A2 (11747474_a_at) / RFU ABCC12 (11746883_a_at) / Fold change /veh ABCC12 (11746883_a_at) / RFU TMEM136 (11760407_x_at) / Fold change /veh TMEM136 (11760407_x_at) / RFU CLDN22 /// WWC2 (11732394_at) / Fold change /veh CLDN22 /// WWC2 (11732394_at) / RFU HLA-DPB1 (11760878_x_at) / Fold change /veh HLA-DPB1 (11760878_x_at) / RFU SPINT1 (11716480_a_at) / Fold change /veh SPINT1 (11716480_a_at) / RFU GAP43 (11754022_s_at) / Fold change /veh GAP43 (11754022_s_at) / RFU A4GNT (11735810_at) / Fold change /veh A4GNT (11735810_at) / RFU PRB3 (11715151_x_at) / Fold change /veh PRB3 (11715151_x_at) / RFU TUBB4B (11761932_at) / Fold change /veh TUBB4B (11761932_at) / RFU CAPN14 (11732068_a_at) / Fold change /veh CAPN14 (11732068_a_at) / RFU TMCC2 (11721928_a_at) / Fold change /veh TMCC2 (11721928_a_at) / RFU IRGQ (11745062_a_at) / Fold change /veh IRGQ (11745062_a_at) / RFU FAM174B (11720279_a_at) / Fold change /veh FAM174B (11720279_a_at) / RFU TMPRSS4 (11748680_a_at) / Fold change /veh TMPRSS4 (11748680_a_at) / RFU FAM212B (11763350_a_at) / Fold change /veh FAM212B (11763350_a_at) / RFU PLEKHG5 (11743358_a_at) / Fold change /veh PLEKHG5 (11743358_a_at) / RFU ZSCAN30 (11745921_a_at) / Fold change /veh ZSCAN30 (11745921_a_at) / RFU CMKLR1 (11741424_a_at) / Fold change /veh CMKLR1 (11741424_a_at) / RFU LOC101060620 /// MAPK8IP1 (11723275_at) / Fold change /veh LOC101060620 /// MAPK8IP1 (11723275_at) / RFU SPTSSB (11747773_x_at) / Fold change /veh SPTSSB (11747773_x_at) / RFU PRSS12 (11739890_at) / Fold change /veh PRSS12 (11739890_at) / RFU BIN1 (11741810_x_at) / Fold change /veh BIN1 (11741810_x_at) / RFU WNT11 (11732464_a_at) / Fold change /veh WNT11 (11732464_a_at) / RFU C10orf10 (11716521_a_at) / Fold change /veh C10orf10 (11716521_a_at) / RFU C5orf56 (11738089_at) / Fold change /veh C5orf56 (11738089_at) / RFU CYB561 (11721691_x_at) / Fold change /veh CYB561 (11721691_x_at) / RFU ANKRD19P (11752326_a_at) / Fold change /veh ANKRD19P (11752326_a_at) / RFU OR2T12 /// OR2T33 /// OR2T8 (11738714_s_at) / Fold change /veh OR2T12 /// OR2T33 /// OR2T8 (11738714_s_at) / RFU VCAN (11748164_a_at) / Fold change /veh VCAN (11748164_a_at) / RFU JSRP1 (11732532_at) / Fold change /veh JSRP1 (11732532_at) / RFU KRTAP10-11 (11738290_x_at) / Fold change /veh KRTAP10-11 (11738290_x_at) / RFU MYO3A (11730013_a_at) / Fold change /veh MYO3A (11730013_a_at) / RFU EBF3 (11725865_a_at) / Fold change /veh EBF3 (11725865_a_at) / RFU CAMK2N1 (11719241_x_at) / Fold change /veh CAMK2N1 (11719241_x_at) / RFU C5orf56 (11738088_a_at) / Fold change /veh C5orf56 (11738088_a_at) / RFU OLFML3 (11715873_a_at) / Fold change /veh OLFML3 (11715873_a_at) / RFU LOC100653217 /// NTM (11731650_a_at) / Fold change /veh LOC100653217 /// NTM (11731650_a_at) / RFU MAPK11 (11762145_a_at) / Fold change /veh MAPK11 (11762145_a_at) / RFU FIZ1 (11724087_x_at) / Fold change /veh FIZ1 (11724087_x_at) / RFU OASL (11726364_x_at) / Fold change /veh OASL (11726364_x_at) / RFU SOX15 (11748057_x_at) / Fold change /veh SOX15 (11748057_x_at) / RFU CD79A (11719716_a_at) / Fold change /veh CD79A (11719716_a_at) / RFU HIST1H1D (11736915_at) / Fold change /veh HIST1H1D (11736915_at) / RFU CASKIN2 (11723855_a_at) / Fold change /veh CASKIN2 (11723855_a_at) / RFU LOC730098 (11760151_x_at) / Fold change /veh LOC730098 (11760151_x_at) / RFU OR4N2 (11742367_at) / Fold change /veh OR4N2 (11742367_at) / RFU PRRT2 (11749266_a_at) / Fold change /veh PRRT2 (11749266_a_at) / RFU SNX32 (11753110_a_at) / Fold change /veh SNX32 (11753110_a_at) / RFU CDHR5 (11726645_a_at) / Fold change /veh CDHR5 (11726645_a_at) / RFU RCAN1 (11760418_a_at) / Fold change /veh RCAN1 (11760418_a_at) / RFU FAM167A (11723789_a_at) / Fold change /veh FAM167A (11723789_a_at) / RFU FAM26E (11764081_at) / Fold change /veh FAM26E (11764081_at) / RFU ISYNA1 (11749810_s_at) / Fold change /veh ISYNA1 (11749810_s_at) / RFU ACY1 (11761880_at) / Fold change /veh ACY1 (11761880_at) / RFU 11764098_at / Fold change /veh 11764098_at / RFU SAMD14 (11745864_x_at) / Fold change /veh SAMD14 (11745864_x_at) / RFU NPB (11741838_a_at) / Fold change /veh NPB (11741838_a_at) / RFU TMPRSS6 (11731388_a_at) / Fold change /veh TMPRSS6 (11731388_a_at) / RFU KRTAP10-2 (11738614_at) / Fold change /veh KRTAP10-2 (11738614_at) / RFU ARHGAP8 /// PRR5-ARHGAP8 (11727945_x_at) / Fold change /veh ARHGAP8 /// PRR5-ARHGAP8 (11727945_x_at) / RFU KRTAP5-7 /// NADSYN1 (11734609_at) / Fold change /veh KRTAP5-7 /// NADSYN1 (11734609_at) / RFU RASL12 (11751679_a_at) / Fold change /veh RASL12 (11751679_a_at) / RFU CDKN2B (11736163_a_at) / Fold change /veh CDKN2B (11736163_a_at) / RFU PRF1 (11729649_at) / Fold change /veh PRF1 (11729649_at) / RFU, ZNF638 /// ZNF638-IT1 / Fold change vs veh, ZNF638 /// ZNF638-IT1 / RFU, PANK3 / Fold change vs veh, PANK3 / RFU, SH3YL1 / Fold change vs veh, SH3YL1 / RFU, ZEB2 / Fold change vs veh, ZEB2 / RFU, NRIP1 / Fold change vs veh, NRIP1 / RFU, PTTG1IP / Fold change vs veh, PTTG1IP / RFU, CAPN2 / Fold change vs veh, CAPN2 / RFU, MED14 / Fold change vs veh, MED14 / RFU, SNORA58 / Fold change vs veh, SNORA58 / RFU, C1orf63 / Fold change vs veh, C1orf63 / RFU, LRRFIP1 / Fold change vs veh, LRRFIP1 / RFU, NDUFAF7 / Fold change vs veh, NDUFAF7 / RFU, SLC12A2 / Fold change vs veh, SLC12A2 / RFU, IBTK / Fold change vs veh, IBTK / RFU, ESF1 / Fold change vs veh, ESF1 / Fold change vs veh, TMEM50B / RFU, TAOK1 / Fold change vs veh, TAOK1 / RFU, ACBD3 / Fold change vs veh, ACBD3 / RFU, TMA16 / Fold change vs veh, TMA16 / RFU, RWDD3 / Fold change vs veh, RWDD3 / RFU, BCAT1 / Fold change vs veh, BCAT1 / RFU, EDEM3 / Fold change vs veh, EDEM3 / RFU, TMEM33 / Fold change vs veh, TMEM33 / RFU, WDR75 / Fold change vs veh, WDR75 / RFU, AHCTF1 / Fold change vs veh, AHCTF1 / RFU, TFRC / Fold change vs veh, TFRC / RFU, ZDHHC17 / Fold change vs veh, ZDHHC17 / RFU, NOM1 / Fold change vs veh, NOM1 / RFU, ARL8B / Fold change vs veh, ARL8B / RFU, ZBTB11 / Fold change vs veh, ZBTB11 / RFU, TAMM41 / Fold change vs veh, TAMM41 / RFU, KIAA1704 /// LOC100996395 / Fold change vs veh, KIAA1704 /// LOC100996395 / RFU, ING1 / Fold change vs veh, ING1 / RFU, TRMT61B / Fold change vs veh, TRMT61B / RFU, FUBP3 / Fold change vs veh, FUBP3 / RFU, TP53 / Fold change vs veh, TP53 / RFU, TNKS2 / Fold change vs veh, TNKS2 / RFU, ZFP14 / Fold change vs veh, ZFP14 / RFU, ACTR2 / Fold change vs veh, ACTR2 / RFU, PPP3R1 / Fold change vs veh, PPP3R1 / RFU, PIK3R1 / Fold change vs veh, PIK3R1 / RFU, HNRNPA1 / Fold change vs veh, HNRNPA1 / RFU, RNF170 / Fold change vs veh, RNF170 / RFU, ZNF28 / Fold change vs veh, ZNF28 / RFU, RNGTT / Fold change vs veh, RNGTT / RFU, OGT / Fold change vs veh, OGT / RFU, BRD1 / Fold change vs veh, BRD1 / RFU, MARS / Fold change vs veh, MARS / RFU, ZNF655 / Fold change vs veh, ZNF655 / RFU, FAHD1 / Fold change vs veh, FAHD1 / RFU, BDP1 / Fold change vs veh, BDP1 / RFU, LRRCC1 / Fold change vs veh, LRRCC1 / RFU, ARID1A / Fold change vs veh, ARID1A / RFU, ZNF146 / Fold change vs veh, ZNF146 / RFU, ZNF330 / Fold change vs veh, ZNF330 / RFU, GPN3 / Fold change vs veh, GPN3 / RFU, C9orf123 / Fold change vs veh, C9orf123 / RFU, N4BP2L2 / Fold change vs veh, N4BP2L2 / RFU, ARFIP1 / Fold change vs veh, ARFIP1 / RFU, FAM179B / Fold change vs veh, FAM179B / RFU, BCL10 / Fold change vs veh, BCL10 / RFU, UHRF1BP1L / Fold change vs veh, UHRF1BP1L / RFU, BET1 / Fold change vs veh, BET1 / RFU, CNOT2 / Fold change vs veh, CNOT2 / RFU, ZNF268 / Fold change vs veh, ZNF268 / Fold change vs veh, ZNF507 / RFU, DGCR2 / Fold change vs veh, DGCR2 / RFU, WDSUB1 / Fold change vs veh, WDSUB1 / Fold change vs veh, HSP90B1 /// MIR3652 / RFU, ADSS / Fold change vs veh, ADSS / RFU, GK / Fold change vs veh, GK / RFU, ZNF148 / Fold change vs veh, ZNF148 / RFU, TAF9 / Fold change vs veh, TAF9 / RFU, SLC1A5 / Fold change vs veh, SLC1A5 / RFU, SLMO2 / Fold change vs veh, SLMO2 / RFU, ABCC4 / Fold change vs veh, ABCC4 / RFU, LOC101060439 /// RAP1B / Fold change vs veh, LOC101060439 /// RAP1B / RFU, RFX7 / Fold change vs veh, RFX7 / RFU, GTPBP10 / Fold change vs veh, GTPBP10 / RFU, CNEP1R1 / Fold change vs veh, CNEP1R1 / RFU, BIVM-ERCC5 /// ERCC5 / Fold change vs veh, BIVM-ERCC5 /// ERCC5 / RFU, ILF3 / Fold change vs veh, ILF3 / RFU 11762660_at / Fold change /veh 11762660_at / RFU VCAN (11757783_s_at) / Fold change /veh VCAN (11757783_s_at) / RFU DDX43 (11728927_at) / Fold change /veh DDX43 (11728927_at) / RFU KRT8 (11758188_x_at) / Fold change /veh KRT8 (11758188_x_at) / RFU NKD1 (11759106_at) / Fold change /veh NKD1 (11759106_at) / RFU SRD5A1 (11742802_a_at) / Fold change /veh SRD5A1 (11742802_a_at) / RFU TPSAB1 /// TPSB2 (11721975_s_at) / Fold change /veh TPSAB1 /// TPSB2 (11721975_s_at) / RFU GSTM3 (11746129_a_at) / Fold change /veh GSTM3 (11746129_a_at) / RFU IL23R (11737362_x_at) / Fold change /veh IL23R (11737362_x_at) / RFU TMEM51 (11727254_a_at) / Fold change /veh TMEM51 (11727254_a_at) / RFU PIWIL2 (11732686_x_at) / Fold change /veh PIWIL2 (11732686_x_at) / RFU ORM1 (11744905_x_at) / Fold change /veh ORM1 (11744905_x_at) / RFU CCDC152 (11743942_at) / Fold change /veh CCDC152 (11743942_at) / RFU ECM1 (11717891_a_at) / Fold change /veh ECM1 (11717891_a_at) / RFU IL23R (11748794_a_at) / Fold change /veh IL23R (11748794_a_at) / RFU TNFAIP8L3 (11732012_x_at) / Fold change /veh TNFAIP8L3 (11732012_x_at) / RFU MBOAT4 (11741988_at) / Fold change /veh MBOAT4 (11741988_at) / RFU 11764193_at / Fold change /veh 11764193_at / RFU TMEM53 (11763286_at) / Fold change /veh TMEM53 (11763286_at) / RFU MAGEB2 (11727129_at) / Fold change /veh MAGEB2 (11727129_at) / RFU TMEM200A (11744735_a_at) / Fold change /veh TMEM200A (11744735_a_at) / RFU CCDC152 (11751479_a_at) / Fold change /veh CCDC152 (11751479_a_at) / RFU FAM211A (11726209_a_at) / Fold change /veh FAM211A (11726209_a_at) / RFU RGS16 (11746705_a_at) / Fold change /veh RGS16 (11746705_a_at) / RFU VCAN (11755009_s_at) / Fold change /veh VCAN (11755009_s_at) / RFU RHOB (11743442_s_at) / Fold change /veh RHOB (11743442_s_at) / RFU RGS16 (11720943_a_at) / Fold change /veh RGS16 (11720943_a_at) / RFU RGS16 (11720944_at) / Fold change /veh RGS16 (11720944_at) / RFU, VPS4B / Fold change vs veh, VPS4B / RFU, CREB1 / Fold change vs veh, CREB1 / RFU, DNAJC13 / Fold change vs veh, DNAJC13 / RFU, GNAQ / Fold change vs veh, GNAQ / RFU, CDK5R1 / Fold change vs veh, CDK5R1 / RFU, ZRANB3 / Fold change vs veh, ZRANB3 / RFU, CUL4A / Fold change vs veh, CUL4A / RFU, CCNY / Fold change vs veh, CCNY / RFU, UFL1 / Fold change vs veh, UFL1 / RFU, COG3 / Fold change vs veh, COG3 / RFU, DIAPH2 / Fold change vs veh, DIAPH2 / RFU, SKA2 / Fold change vs veh, SKA2 / RFU, AFF3 / Fold change vs veh, AFF3 / RFU, LMF1 / Fold change vs veh, LMF1 / RFU, IPO11 / Fold change vs veh, IPO11 / RFU, DFFB / Fold change vs veh, DFFB / RFU, FOXP1 / Fold change vs veh, FOXP1 / RFU, CARD8 / Fold change vs veh, CARD8 / RFU, STRN3 / Fold change vs veh, STRN3 / RFU, ADK / Fold change vs veh, ADK / RFU, RASSF2 / Fold change vs veh, RASSF2 / RFU, WIPF1 / Fold change vs veh, WIPF1 / RFU, LARP1B / Fold change vs veh, LARP1B / RFU, RASA1 / Fold change vs veh, RASA1 / RFU, RB1 / Fold change vs veh, RB1 / RFU, PPFIA1 / Fold change vs veh, PPFIA1 / RFU, MAT2A / Fold change vs veh, MAT2A / RFU, CCT5 / Fold change vs veh, CCT5 / RFU, WDR92 / Fold change vs veh, WDR92 / RFU, CUX1 / Fold change vs veh, CUX1 / RFU, TTC7A / Fold change vs veh, TTC7A / RFU, TMEM135 / Fold change vs veh, TMEM135 / RFU, DEPTOR / Fold change vs veh, DEPTOR / RFU, CPM / Fold change vs veh, CPM / RFU, DNAJB6 / Fold change vs veh, DNAJB6 / RFU, CACNA2D3 / Fold change vs veh, CACNA2D3 / RFU, DTX4 / Fold change vs veh, DTX4 / RFU, TFCP2 / Fold change vs veh, TFCP2 / RFU, GMCL1 /// GMCL1P1 / Fold change vs veh, GMCL1 /// GMCL1P1 / RFU, AEBP2 / Fold change vs veh, AEBP2 / RFU, SNHG1 /// SNORD22 /// SNORD25 /// SNORD26 /// SNORD27 /// SNORD28 /// SNORD29 /// SNORD31 / Fold change vs veh, SNHG1 /// SNORD22 /// SNORD25 /// SNORD26 /// SNORD27 /// SNORD28 /// SNORD29 /// SNORD31 / Fold change (Aza/veh), C12orf56 (ProbeSet 11735607_a_at) / Fold change (ACY-1035/veh), C12orf56 (ProbeSet 11735607_a_at) / Fold change (Aza/veh), FGFR1OP (ProbeSet 11751329_s_at) / Fold change (ACY-1035/veh), FGFR1OP (ProbeSet 11751329_s_at) / Fold change (Aza/veh), VPS36 (ProbeSet 11739960_a_at) / Fold change (ACY-1035/veh), VPS36 (ProbeSet 11739960_a_at) / RFU SYPL1 (11715823_x_at) / Fold change /veh SYPL1 (11715823_x_at) / RFU IGFBP7 (11715501_s_at) / Fold change /veh IGFBP7 (11715501_s_at) / RFU REEP3 (11722064_at) / Fold change /veh REEP3 (11722064_at) / RFU IGLL1 (11728026_x_at) / Fold change /veh IGLL1 (11728026_x_at): dose or concentration left out as unconfirmed. As to conditions: MV-4-11 cells, 48 hours.

Take `Nc1ncn([C@@H]2O[C@H](CO)[C@@H](O)[C@H]2O)c(=O)n1` [azacitidine]: the “Fold change /veh NKD1 (11759106_at)” value was 1.33.
